# “Also recorded” adds a separate entry of the source.
# How the values were obtained:
# linearized pBR322 DNA = experiment: DNA alkylation assay (electrophoretic gel assay) with linearized pBR322 DNA; type: biochemical; settings: 37° C.; for DNA cross-linking: 10 μM
# Protocol: FIG. 17 A. DNA alkylation assay employing linearized pBR322 DNA and the pyridone derivatives 17a or 17b or the unsaturated imines 15a or 15b. Conditions: Linearized pBR322 DNA (20 μM in base pairs (bps)), 15a (100, 10, 1, 0.5, or 0.1 μM), 15b (500, 100, 10, or 1 μM), 17a (500 or 100 μM) or 17b (500 or 100 μM), 37° C., 15 h. Cisplatin (CP; 100 μM) and methyl methanesulfonate (MMS; 500, 100, or 10 μM) were used as positive controls for DNA cross-linking and alkylation, respectively. DNA was visualized using SybrGold. B. DNA alkylation assay employing linearized pBR322 DNA and the unsaturated imine 15a. Conditions: Linearized pBR322 DNA (20 μM in base pairs), 15a (100, 10, 1, 0.1, 0.05, 0.01, or 0.005 μM), 37° C., 15 h.
# FIG. 19 A. Structures of the dimer 15c and the gem-dimethyl derivative 15d. B. DNA alkylation assay employing linearized pBR322 DNA and the dimer 15c or the gem-dimethyl derivative 15d. Conditions: Linearized pBR322 DNA (20 μM in base pairs), 15c (10 μM) or 15d (500 or 100 μM), 37° C., 0.1-15 h.
# B. DNA alkylation assay employing linearized pBR322 DNA and the unsaturated lactam 19 or the unsaturated imine 15j. Conditions: Linearized pBR322 DNA (20 μM in base pairs), 19 (500, 100, 10, or 1 μM) or 15j (500, 100, 10, or 1 μM), 37° C., 15 h.
# Conditions: Linearized pBR322 DNA (20 μM in base pairs), 15h (1, 0.1, or 0.01 μM), 15i (1, 0.1, or 0.01 μM), 15f (1, 0.1, or 0.01 μM), 15g (1, 0.1, or 0.01 μM), 15a (1, 0.1, or 0.01 μM), 15e (1, 0.1, or 0.01 μM), 37° C., 15 h. Methyl methanesulfonate (MMS; 500 or 100 μM) was used as a positive control for DNA alkylation. DNA was visualized using SybrGold.
# The activity of 15a, 15b, 17a, and 17b was evaluated in a DNA alkylation assay. Plasmid pBR322 DNA was treated with EcoRI-HF in Cutsmart buffer, and the resulting linearized DNA was incubated with 15a, 15b, 17a, or 17b for 15 h at 37° C. The DNA was then denatured, and the sample was eluted on a 1% neutral agarose gel. DNA was visualized with SybrGold. Cisplatin (CP, 100 μM) and methyl methanesulfonate (MMS, 500, 100, or 10 μM) were used as positive controls for DNA cross-linking and alkylation, respectively. […] The streaking of DNA induced by 15a and 15b parallels that observed with 500 μM of MMS and derives from the presence of shorter DNA strands that are formed by thermal or alkaline denaturation of extensively-alkylated (or in the case of MMS, methylated) DNA.^16 Further evidence for direct alkylation by 15a and 15b is presented in the cross-linking study outlined below.
# The […] plasmid pBR322 was propogated in DH5a, isolated by MaxiPrep (Qiagen), and linearized with 5 U/μg EcoRI (NEB). The cut plasmid was column purified and eluted into 10 mM Tris pH 8.0. For each reaction, 130 ng of DNA (20 μM base pairs) was incubated with compound in a 10 μL total volume. Reactions proceeded for 15 h at 37° C., unless otherwise noted. Compounds were diluted in DMSO such that each reaction consisted of a fixed 5% DMSO concentration. Pure MMS (Alfa Aesar) and cisplatin (Biovision) stock solutions were diluted into DMSO immediately prior to use. After incubation, 35 μL of denaturation buffer (6% sucrose, 1% sodium hydroxide, 0.04% bromophenol blue) was added to each reaction. Non-denatured control samples were diluted with 6% sucrose, 0.04% bromophenol blue. Samples were vortexed for 1 min, left at room temperature for 15 min, and then immediately frozen at −80° C. Thawed samples were then loaded onto a 1% agarose Tris-Borate-EDTA (TBE) gel stained with SybrGold (Molecular Probes) and run in TBE buffer for 1 hour at 120V.
# calf thymus DNA (ctDNA) = experiment: DNA melting temperature analysis (UV thermal denaturation); type: binding
# Protocol: (§1) Conditions: 2.09 mM NaH2PO4, 7.13 mM Na2HPO4, 928 μM Na2EDTA, 1.01 mM DMSO, pH 7.18. The imine 15a was incubated with ctDNA for 5 min, 1 h, 3 h, 6 h, or 15 h prior to UV thermal denaturation experiments (260 nm, heating rate: 0.5° C./min). [DNA]=32.0 mM bps. The Tm was defined as the temperature at which half of the duplex DNA was unwound, and was determined by the maximum of the first derivative of the thermal denaturation profile.
# as §1, with “pyridone 17a” for “imine 15a”, “for” for “for 5 min, 1 h,”, “3” for “3 h, 6 h, or 15”
# A DNA melting temperature analysis was conducted to determine if the variance in DNA alkylation activity between the pyridones and the unsaturated imines was due to differences in DNA binding affinity. The hyperchromicity of calf thymus DNA (ctDNA) with increasing temperature was measured at 260 nm in the presence of varying concentrations of 15a or 17a. The Tm was defined as the temperature at which half of the duplex DNA was unwound and was determined by the maximum of the first derivative of the thermal denaturation profile. […] The inventors hypothesized that this was due to an initial binding of 15a to the duplex followed by slow alkylation and degradation. To probe this, they repeated the plasmid alkylation assay using 15a and evaluated the extent of DNA alkylation as a function of time.
# UV thermal denaturation samples were prepared by mixing calf thymus DNA [32.0 mM base pairs (bps)] in 2.09 mM NaH2PO4, 7.13 mM Na2HPO4, 928 μM Na2EDTA, 1.01 mM DMSO, pH 7.18 to a final volume of 1.0 mL. Samples were subjected to sonication (6 h) at 25° C. to effect complete dissolution. After incubation with 15a, 15b, 17a, and 17b for 5 min, 1 h, 3 h, 6 h, or 15 h, the UV thermal denaturation spectra of the samples were recorded at 260 nm as a function of temperature (55→80° C., heating rate: 0.5° C./min). First derivative plots were used to determine the denaturation temperature.
# [1] = test system: colibactin peptidase ClbP; experiment: LC-HRMS analysis for the in vivo cleavage of synthetic 6 by ClbP; type: cell-based; settings: 50 μM in E. coli DH10B pClbP culture, 37° C., 24 h
# Protocol: E. coli DH10B pClbP (pPEB018) and the bacteria harboring the empty vector pBAD18 (as previously reported^3) were grown in LB medium supplemented with 100 μg/mL ampicillin. The next morning, 50 μL of these saturated cultures were used to inoculate 2.5 mL of LB medium containing 100 μg/mL ampicillin. Cultures were incubated at 37° C. with shaking at 250 rpm. At an OD600 of 0.4-0.5, cultures were induced with L-arabinose and left to grow for another 30 min. Then, the synthetic 6 substrate (10 mM stock solution in DMSO) or DMSO (vector control) was added to each culture to a final concentration of 50 μM, and incubated at 37° C. for 24 h. At the designated time point, the cultures were extracted with organic solvent and analyzed by LC-HRMS on a Phenomenex C18-A column (150×4.6 mm, 180 Å, 5 μm particle size, Agilent) with a water:acetonitrile (ACN) gradient containing 0.1% formic acid 0.7 mL/min: 1-2 min, 5% ACN; ramp to 98% ACN over 18 min; hold for 5 min at 100% ACN.
# [2] = test system: colibactin peptidase ClbP; settings: earlier publication (ref. 10); cited from earlier work
# [3] = linearized pBR322 DNA (20 μM bp), 15 h
# [4] = 2 bp equiv, incubation 5 min to 15 h
# [5] = linearized pBR322 DNA (20 μM bp), 15 h, concentrations up to 500 μM
structure (smiles),measurement,setting,value
C[C@H]1CCC(C2=C(CC(=O)NCc3nc(-c4nc(C(=O)NCCN(C)C)cs4)cs3)C3(CC3)NC2=O)=N1 [15a],"extent of DNA damage, dose response","linearized pBR322 DNA; 5 nM, 15 h (FIG. 17B)",negligible
same,extent of DNA alkylation as a function of time,"linearized pBR322 DNA; 1 μM, 0.1-15 h (FIG. 18C)",alkylation activity correlated approximately with the decrease in duplex stability
same,"DNA damage, dose response","linearized pBR322 DNA; 50 or 10 nM, 15 h (FIG. 17B)",small amounts of DNA damage
same,"DNA alkylation, dose response","linearized pBR322 DNA; concentrations as low as 100 nM, 15 h (FIG. 17B)",extensive DNA alkylation
same,DNA alkylation,linearized pBR322 DNA; [3],extensively alkylated DNA
same,DNA alkylation activity relative to 15b,"linearized pBR322 DNA; linearized pBR322 DNA, 15 h (FIG. 17A)",significantly more active than the N-methylamide 15b
same,time dependence of the effect on melting temperature / duplex stability,"calf thymus DNA (ctDNA); 1 or 2 bp equiv, incubation 5 min, 1 h, 3 h, 6 h or 15 h",time-dependent effects on duplex stability; also recorded: Time-dependent modulation of the melting temperature
same,duplex stability,"calf thymus DNA (ctDNA); longer incubations (3-15 h), 1 or 2 bp equiv",duplex stability decreased
same,increase in Tm,calf thymus DNA (ctDNA); rligand/bp=2,1.8 °C
same,duplex stability,"calf thymus DNA (ctDNA); times less than 1 h, 1 or 2 bp equiv",stabilization of the duplex was observed
CNC(=O)c1csc(-c2csc(CNC(=O)CC3=C(C4=N[C@@H](C)CC4)C(=O)NC34CC4)n2)n1 [15b],DNA alkylation,linearized pBR322 DNA; [3],extensively alkylated DNA
same,modulation of the melting temperature of calf thymus DNA,"calf thymus DNA (ctDNA); 1 bp equiv, incubation 5 min, 3 h or 15 h",no significant modulation
same,modulation of the melting temperature of calf thymus DNA,calf thymus DNA (ctDNA); [4],no significant modulation
C[C@H]1CCC(C2=C(CC(=O)NCc3nc(-c4nc(C(=O)NCCCN(C)CCCNC(=O)c5csc(-c6csc(CNC(=O)CC7=C(C8=N[C@@H](C)CC8)C(=O)NC78CC8)n6)n5)cs4)cs3)C3(CC3)NC2=O)=N1 [15c],DNA cross-linking,linearized pBR322 DNA; 3 h,a clear cross-linked band
same,DNA cross-linking,linearized pBR322 DNA; later timepoints (6 or 15 h),this cross-linked band diminished
C[C@H]1CCC(C2=C(CC(=O)NCc3nc(-c4nc(C(=O)NCCN(C)C)cs4)cs3)C(C)(C)NC2=O)=N1 [15d],DNA alkylation activity,linearized pBR322 DNA; [5],did not alkylate DNA
C[C@H]1CCC(C2=C(CC(=O)N(C)Cc3nc(-c4nc(C(=O)NCCN(C)C)cs4)cs3)C3(CC3)NC2=O)=N1 [15j],DNA alkylation / decomposition of the DNA,"linearized pBR322 DNA; 10 or 1 μM, 15 h (FIG. 21B)",extensive decomposition of the DNA
same,DNA alkylation potency relative to lactam 19,linearized pBR322 DNA; 15 h (FIG. 21B),significantly more potent
C[C@H](N)CCc1c2c(cc(=O)n1Cc1nc(-c3nc(C(=O)NCCN(C)C)cs3)cs1)C1(CC1)NC2=O [17a],DNA alkylation activity,linearized pBR322 DNA; [5],neither of the pyridone derivatives 17a or 17b displayed measurable activity
same,effect of increasing amounts on melting temperature of ctDNA,"calf thymus DNA (ctDNA); incubated with ctDNA for 3 h, 260 nm",dose-dependent increase in the melting temperature
same,increase in Tm,"calf thymus DNA (ctDNA); ratio of compound to base pairs of 4.0, incubated 3 h",3.8 °C
same,increase in Tm,calf thymus DNA (ctDNA); rligand/bp=2,2.8 °C
CNC(=O)c1csc(-c2csc(Cn3c(CC[C@H](C)N)c4c(cc3=O)C3(CC3)NC4=O)n2)n1 [17b],DNA alkylation activity,linearized pBR322 DNA; [5],neither of the pyridone derivatives 17a or 17b displayed measurable activity
same,modulation of the melting temperature of calf thymus DNA,calf thymus DNA (ctDNA); [4],no significant modulation
C[C@@H](CCC(=O)C1=C(CC(=O)N(C)Cc2nc(-c3nc(C(=O)NCCN(C)C)cs3)cs2)C2(CC2)NC1=O)NC(=O)OC(C)(C)C [compound 19],DNA alkylation activity,"linearized pBR322 DNA; 500 μM, 15 h (FIG. 21B)",weak DNA alkylation activity
CCCCCCCCCCCCCC(=O)N[C@H](CC(N)=O)C(=O)N[C@@H](C)CCc1c2c(cc(=O)n1Cc1nc(-c3nc(C(=O)O)cs3)cs1)C1(CC1)NC2=O [precolibactin C (6)],cleavage by ClbP,[1],converted to N-myristoyl-D-Asn and its corresponding colibactin by colibactin peptidase ClbP; also recorded: converted to N-myristoyl-D-Asn and its corresponding colibactin in a ClbP-dependent manner
same,substrate for ClbP,[2],demonstrated to be a substrate for ClbP

# — patent publication US20190031650A1, “DNA ALKYLATION AND CROSS-LINKING AGENTS AS COMPOUNDS AND PAYLOADS FOR TARGETED THERAPIES” (YALE UNIVERSITY, priority 2016, published 2019)
